Laboratory results as given in patent US7662832B2, “Pyrrolo[2,3-c]pyridine derivatives and processes for the preparation thereof” (priority 2004, dated 2010).
Counter-ions that a name gives are not always drawn.

Each molecule was assayed against Proton Pump (H^+/K^+-ATPase) (Sus scrofa, UniProt P19156) (assay: Inhibitory effects on proton pump (H^+/K^+-ATPase) activity). Conditions: hog gastric vesicles; K^+ stimulated H^+/K^+-ATPase activity; 30 minutes at 37° C.
Assay type: biochemical

Sequence of Proton Pump (H^+/K^+-ATPase) (P19156 2-1034 limits assumed): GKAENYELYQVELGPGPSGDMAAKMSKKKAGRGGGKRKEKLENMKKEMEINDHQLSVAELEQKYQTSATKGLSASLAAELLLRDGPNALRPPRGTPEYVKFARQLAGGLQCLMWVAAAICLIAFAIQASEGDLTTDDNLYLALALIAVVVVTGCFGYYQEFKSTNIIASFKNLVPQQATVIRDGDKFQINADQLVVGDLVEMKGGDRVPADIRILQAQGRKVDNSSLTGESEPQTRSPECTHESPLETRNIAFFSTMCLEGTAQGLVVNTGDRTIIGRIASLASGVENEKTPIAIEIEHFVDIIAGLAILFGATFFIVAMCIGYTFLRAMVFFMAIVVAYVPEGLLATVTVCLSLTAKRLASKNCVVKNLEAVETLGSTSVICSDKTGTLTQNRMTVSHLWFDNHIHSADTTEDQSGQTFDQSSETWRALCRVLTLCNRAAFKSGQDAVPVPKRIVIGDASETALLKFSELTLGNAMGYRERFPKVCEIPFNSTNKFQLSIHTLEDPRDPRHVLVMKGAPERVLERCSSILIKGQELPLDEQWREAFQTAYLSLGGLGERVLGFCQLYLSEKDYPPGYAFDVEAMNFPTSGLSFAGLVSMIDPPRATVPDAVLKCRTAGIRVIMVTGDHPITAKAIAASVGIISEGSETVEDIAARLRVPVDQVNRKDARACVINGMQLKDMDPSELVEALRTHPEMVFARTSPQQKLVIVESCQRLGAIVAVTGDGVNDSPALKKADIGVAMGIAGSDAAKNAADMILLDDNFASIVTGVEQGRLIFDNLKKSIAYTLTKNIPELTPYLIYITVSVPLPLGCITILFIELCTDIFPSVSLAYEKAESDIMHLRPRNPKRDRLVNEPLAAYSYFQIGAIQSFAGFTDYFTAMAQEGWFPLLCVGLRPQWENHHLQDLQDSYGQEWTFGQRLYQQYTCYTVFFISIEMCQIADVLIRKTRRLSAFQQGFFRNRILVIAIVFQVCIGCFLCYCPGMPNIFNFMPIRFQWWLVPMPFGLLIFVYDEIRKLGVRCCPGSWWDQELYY
Sequence of Proton Pump (H^+/K^+-ATPase) (P18434 whole entry partner): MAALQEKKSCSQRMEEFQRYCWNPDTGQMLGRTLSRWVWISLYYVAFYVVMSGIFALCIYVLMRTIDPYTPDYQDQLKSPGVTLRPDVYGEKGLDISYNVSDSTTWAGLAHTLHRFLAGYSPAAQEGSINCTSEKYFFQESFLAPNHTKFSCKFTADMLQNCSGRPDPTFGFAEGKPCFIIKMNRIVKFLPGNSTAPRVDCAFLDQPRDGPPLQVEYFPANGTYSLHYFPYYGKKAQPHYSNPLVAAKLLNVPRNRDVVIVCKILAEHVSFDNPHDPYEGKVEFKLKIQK

IC50 | SMILES
160 nM | CCOCCn1c(C)c(C)c2ccnc(N3CCc4ccccc4C3)c21 [Example 503, 1-(2-ethoxyethyl)-7-(1,2,3,4-tetrahydroisoquinolin-2-yl)-2,3-dimethyl-1H-pyrrolo[2,3-c]pyridine hydrochloride]
3 nM | COc1cccc(Cn2c(C)c(C)c3cc(C(=O)N4CCN(C)CC4)nc(N4CCc5ccccc5C4)c32)c1 [Example 783, [7-(3,4-dihydro-1H-isoquinolin-2-yl)-1-(3-methoxybenzyl)-2,3-dimethyl-1H-pyrrolo[2,3-c]pyridin-5-yl]-(4-methylpiperazin-1-yl)-methanone hydrochloride]
87 nM | Cc1c(C)n(Cc2cccc(F)c2)c2c(CCc3ccccc3)nccc12 [Example 449, 1-(3-fluorobenzyl)-2,3-dimethyl-7-phenethyl-1H-pyrrolo[2,3-c]pyridine hydrochloride]
130 nM | CSc1ccc(-c2nccc3c(C)c(C)n(Cc4ccccc4)c23)cc1 [Example 268, 1-benzyl-2,3-dimethyl-7-(4-methylsulfanylphenyl)-1H-pyrrolo[2,3-c]pyridine hydrochloride]
400 nM | Cc1c(C)n(Cc2ccc(F)cc2)c2c(N(C)Cc3ccc(F)cc3)nccc12 [Example 155, 1-(4-fluorobenzyl)-7-[N-(4-fluorobenzyl)-N-methyl]amino-2,3-dimethyl-1H-pyrrolo[2,3-c]pyridine hydrochloride]
217 nM | Cc1c(C)n(Cc2cccc(F)c2)c2c(N3CCc4ccccc4C3)nc(CF)cc12 [Example 885, 2-[1-(3-fluorobenzyl)-5-fluoromethyl-2,3-dimethyl-1H-pyrrolo[2,3-c]pyridin-7-yl]-1,2,3,4-tetrahydroisoquinoline hydrochloride]
56 nM | COc1cccc(Cn2c(C)c(C)c3ccnc(N4CCc5ccccc5C4)c32)c1 [Example 510, 1-(3-methoxybenzyl)-7-(1,2,3,4-tetrahydroisoquinolin-2-yl)-2,3-dimethyl-1H-pyrrolo[2,3-c]pyridine hydrochloride]
410 nM | C=CCn1c(C)c(C)c2ccnc(COc3ccc(F)cc3)c21 [Example 2, 1-allyl-7-(4-fluorophenoxymethyl)-2,3-dimethyl-1H-pyrrolo[2,3-c]pyridine hydrochloride]
460 nM | COc1ccc(Cn2c(C)c(C)c3ccnc(CCc4ccccc4)c32)cc1 [Example 445, 1-(4-methoxybenzyl)-2,3-dimethyl-7-phenethyl-1H-pyrrolo[2,3-c]pyridine hydrochloride]
460 nM | Cc1c(C)n(CC(C)C)c2c(CCc3ccccc3)nccc12 [Example 447, 1-isobutyl-2,3-dimethyl-7-phenethyl-1H-pyrrolo[2,3-c]pyridine hydrochloride]
915 nM | Cc1c(C)n(CC(C)C)c2c(-c3ccc(Cl)cc3)nccc12 [Example 304, 7-(4-chlorophenyl)-1-isobutyl-2,3-dimethyl-1H-pyrrolo[2,3-c]pyridine hydrochloride]
40 nM | Cc1c(C)n(Cc2cccc(F)c2)c2c(N3CCc4ccccc4C3)nc(CNC(C)(C)C)cc12 [Example 869, N-[7-(3,4-dihydro-1H-isoquinolin-2-yl)-1-(3-fluorobenzyl)-2,3-dimethyl-1H-pyrrolo[2,3-c]pyridin-5-ylmethyl]-tert-butylamine hydrochloride]
37 nM | CC(C)=CCn1c(C)c(C)c2cc(C(=O)N3CCN(C)CC3)nc(N3CCc4ccccc4C3)c21 [Example 834, [7-(3,4-dihydro-1H-isoquinolin-2-yl)-2,3-dimethyl-1-(3-methylbut-2-enyl)-1H-pyrrolo[2,3-c]pyridin-5-yl]-(4-methylpiperazin-1-yl)-methanone hydrochloride]
345 nM | C#CCn1c(C)c(C)c2ccnc(-c3ccc(C)cc3)c21 [Example 280, 2,3-dimethyl-1-(prop-2-ynyl)-7-(p-tolyl)-1H-pyrrolo[2,3-c]pyridine hydrochloride]
129 nM | CCn1c(C)c(C)c2cc(N)nc(N3CCc4ccccc4C3)c21 [Example 849, 7-(3,4-dihydro-1H-isoquinolin-2-yl)-1-ethyl-2,3-dimethyl-1H-pyrrolo[2,3-c]pyridin-5-amine hydrochloride]
26 nM | COCCn1c(C)c(C)c2cc(C(=O)N3CCN(C)CC3)nc(N3CCc4ccccc4C3)c21 [Example 821, [7-(3,4-dihydro-1H-isoquinolin-2-yl)-1-(2-methoxyethyl)-2,3-dimethyl-1H-pyrrolo[2,3-c]pyridin-5-yl]-(4-methylpiperazin-1-yl)-methanone hydrochloride]
133 nM | CCCn1c(C)c(C)c2ccnc(NCc3ccc(F)cc3)c21 [Example 228, 7-(4-fluorobenzylamino)-2,3-dimethyl-1-propyl-1H-pyrrolo[2,3-c]pyridine hydrochloride]
282 nM | CCn1nnnc1-c1cc2c(C)c(C)n(Cc3cccc(Cl)c3)c2c(N2CCc3ccccc3C2)n1 [Example 854, 2-[1-(3-chlorobenzyl)-2,3-dimethyl-5-(1-ethyl-1H-tetrazol-5-yl)-1H-pyrrolo[2,3-c]pyridin-7-yl]-1,2,3,4-tetrahydroisoquinoline]

IC50 | SMILES
1240 nM | Cc1ccccc1CNc1nccc2c(C)c(C)n(Cc3ccc(F)cc3)c12 [Example 219, 1-(4-fluorobenzyl)-2,3-dimethyl-7-(2-methylbenzylamino)-1H-pyrrolo[2,3-c]pyridine hydrochloride]
70 nM | Cc1c(C)n(CC2CC2)c2c(-c3ccc4ccccc4c3)nccc12 [Example 403, 1-cyclopropylmethyl-2,3-dimethyl-7-(naphthalen-2-yl)-1H-pyrrolo[2,3-c]pyridine hydrochloride]
350 nM | C=CCn1c(C)c(C)c2cc(C(=O)NCC(F)(F)F)nc(N3CCc4ccccc4C3)c21 [Example 762, 1-allyl-7-(3,4-dihydro-1H-isoquinolin-2-yl)-2,3-dimethyl-N-(2,2,2-trifluoroethyl)-1H-pyrrolo[2,3-c]pyridin-5-carboxamide]
258 nM | Cc1c(C)n(Cc2cccc(Cl)c2)c2c(N3CCc4ccccc4C3)nc(CN3CCN(C)CC3)cc12 [Example 875, 2-[1-(3-chlorobenzyl)-2,3-dimethyl-5-(4-methylpiperazin-1-ylmethyl)-1H-pyrrolo[2,3-c]pyridin-7-yl]-1,2,3,4-tetrahydroisoquinoline hydrochloride]
430 nM | COc1ccc(Cn2c(C)c(C)c3ccnc(N4CCc5ccccc5C4C)c32)cc1 (stereo not drawn) [Example 558, 2-[1-(4-methoxybenzyl)-2,3-dimethyl-1H-pyrrolo[2,3-c]pyridin-7-yl]-1-methyl-1,2,3,4-tetrahydroisoquinoline hydrochloride]
32 nM | CCN1CCN(C(=O)c2cc3c(C)c(C)n(Cc4ccccc4)c3c(NCc3ccc(F)cc3)n2)CC1 [Example 907, [1-benzyl-7-(4-fluorobenzylamino)-2,3-dimethyl-1H-pyrrolo[2,3-c]pyridin-5-yl]-(4-ethylpiperazin-1-yl)-methanone hydrochloride]
481 nM | Cc1c(C)n(Cc2cccc(F)c2)c2c(N3CCc4ccccc4C3)nc(C#N)cc12 [Example 695, 7-(3,4-dihydro-1H-isoquinolin-2-yl)-1-(3-fluorobenzyl)-2,3-dimethyl-1H-pyrrolo[2,3-c]pyridin-5-carbonitrile]
1 nM | CCn1c(C)c(C)c2cc(C(=O)N3CCN(C)CC3)nc(N3CCc4ccccc4C3)c21 [Example 782, [7-(3,4-dihydro-1H-isoquinolin-2-yl)-1-ethyl-2,3-dimethyl-1H-pyrrolo[2,3-c]pyridin-5-yl]-(4-methylpiperazin-1-yl)-methanone hydrochloride]
120 nM | C=CCn1c(C)c(C)c2ccnc(C=Cc3ccccc3)c21 [Example 416, 1-allyl-2,3-dimethyl-7-styryl-1H-pyrrolo[2,3-c]pyridine hydrochloride]
103 nM | Cc1c(C)n(Cc2ccccc2)c2c(N3CCc4ccccc4C3)nc(C(=O)N3CCOCC3)cc12 [Example 769, [1-benzyl-7-(3,4-dihydro-1H-isoquinolin-2-yl)-2,3-dimethyl-1H-pyrrolo[2,3-c]pyridin-5-yl]-(morpholin-4-yl)-methanone hydrochloride]
11 nM | CCCn1c(C)c(C)c2cc(C(=O)N3CCNCC3)nc(N3CCc4ccccc4C3)c21 [Example 813, [7-(3,4-dihydro-1H-isoquinolin-2-yl)-2,3-dimethyl-1-propyl-1H-pyrrolo[2,3-c]pyridin-5-yl]-(piperazin-1-yl)-methanone hydrochloride]
380 nM | Cc1c(C)n(CC2CC2)c2c(COc3ccc(F)cc3)nccc12 [Example 7, 1-cyclopropylmethyl-7-(4-fluorophenoxymethyl)-2,3-dimethyl-1H-pyrrolo[2,3-c]pyridine hydrochloride]
3200 nM | CCCn1c(C)c(C)c2cc(C#N)nc(N3CCc4ccccc4C3)c21 [Example 697, 7-(3,4-dihydro-1H-isoquinolin-2-yl)-2,3-dimethyl-1-propyl-1H-pyrrolo[2,3-c]pyridin-5-carbonitrile]
93 nM | Cc1c(C)n(Cc2ccccc2F)c2c(-c3ccc4ccccc4c3)nccc12 [Example 409, 1-(2-fluorobenzyl)-2,3-dimethyl-7-(naphthalen-2-yl)-1H-pyrrolo[2,3-c]pyridine hydrochloride]
470 nM | CCC1c2ccccc2CCN1c1nccc2c(C)c(C)n(C)c12 (stereo not drawn) [Example 575, 1-ethyl-2-(1,2,3-trimethyl-1H-pyrrolo[2,3-c]pyridin-7-yl)-1,2,3,4-tetrahydroisoquinoline hydrochloride]
91 nM | COCn1c(C)c(C)c2cc(C(=O)N3CCCCC3)nc(N3CCc4ccccc4C3)c21 [Example 800, [7-(3,4-dihydro-1H-isoquinolin-2-yl)-1-methoxymethyl-2,3-dimethyl-1H-pyrrolo[2,3-c]pyridin-5-yl]-(piperidin-1-yl)-methanone hydrochloride]
230 nM | C=CCn1c(C)c(C)c2ccnc(CCc3ccccc3)c21 [Example 448, 1-allyl-2,3-dimethyl-7-phenethyl-1H-pyrrolo[2,3-c]pyridine hydrochloride]

SMILES | IC50
C=CCn1c(C)c(C)c2ccnc(N3CCc4ccccc4C3)c21 [Example 494, 1-allyl-7-(1,2,3,4-tetrahydroisoquinolin-2-yl)-2,3-dimethyl-1H-pyrrolo[2,3-c]pyridine hydrobromide] | 4 nM
